Legend:
Assay in all cases: relative viability (nuclei count vs DMSO), 5 days (fraction); higher = more cells survive
[1] = system: HCC-827
Outline: (§1)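 The day after seeding in 1536-well plates, lung cancer cell lines were treated by pin tool with a single drug, or with a fixed anchor-drug dose together with five library-drug doses (not always all listed) in √10 steps. After 5 days, a combined fix-and-stain solution (final 0.05% Triton X-100, 1% formaldehyde, 1 ug/ml Hoechst) was added. Nuclei counted on 4× images gave relative viability as treated counts over vehicle counts, reported as the median of duplicate plates.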

[2] = system: 201T
Outline: as §1

[3] = system: NCI-H23
Outline: as §1

[4] = system: PC-3 [JPC-3]
Outline: as §1

[5] = system: H3255
Outline: as §1

[6] = system: HOP-62
Outline: as §1

[7] = system: NCI-H727
Outline: as §1

[8] = system: SK-LU-1
Outline: as §1

[9] = system: NCI-H661
Outline: as §1

[10] = system: NCI-H2405
Outline: as §1

[11] = system: HARA
Outline: as §1

For `CCNC(=O)c1noc(-c2cc(C(C)C)c(O)cc2O)c1-c1ccc(CN2CCOCC2)cc1` [Luminespib] + C[C@@H](Oc1cc(-c2cnn(C3CCNCC3)c2)cnc1N)c1c(Cl)ccc(F)c1Cl [Crizotinib] (partner 1 µM), which relative viability ([1]; first compound 0.002 µM) is on record?
The relative viability was 0.944.

And the relative viability ([1]; first compound 0.006325 µM)?
Its relative viability is 0.899.

What about the relative viability ([1]; first compound 0.02 µM) of the same compound?
Its relative viability is 0.887.

And the relative viability ([1]; first compound 0.06325 µM)?
Its relative viability is 0.952.

What about the relative viability ([1]; first compound 0.2 µM) of the same compound?
The relative viability was 0.879.

What about the relative viability ([2]; first compound 0.002 µM) of the same compound?
Its relative viability is 0.995.

And the relative viability ([2]; first compound 0.006325 µM)?
The relative viability was 0.981.

And the relative viability ([2]; first compound 0.02 µM)?
Its relative viability is 0.968.

And the relative viability ([2]; first compound 0.06325 µM)?
Its relative viability is 1.03.

And the relative viability ([2]; first compound 0.2 µM)?
The relative viability was 1.03.

What about the relative viability ([3]; first compound 0.002 µM) of the same compound?
The relative viability was 0.56.

What about the relative viability ([3]; first compound 0.006325 µM) of the same compound?
Its relative viability is 0.538.

What about the relative viability ([3]; first compound 0.02 µM) of the same compound?
The relative viability was 0.445.

And the relative viability ([3]; first compound 0.06325 µM)?
Its relative viability is 0.119.

What about the relative viability ([3]; first compound 0.2 µM) of the same compound?
The relative viability was 0.123.

What about the relative viability ([4]; first compound 0.002 µM) of the same compound?
Its relative viability is 1.01.

What about the relative viability ([4]; first compound 0.006325 µM) of the same compound?
Its relative viability is 0.875.

And the relative viability ([4]; first compound 0.02 µM)?
Its relative viability is 0.971.

What about the relative viability ([4]; first compound 0.06325 µM) of the same compound?
The relative viability was 0.996.

What about the relative viability ([4]; first compound 0.2 µM) of the same compound?
The relative viability was 0.933.

And the relative viability ([5]; first compound 0.002 µM)?
Its relative viability is 0.896.

What about the relative viability ([5]; first compound 0.006325 µM) of the same compound?
The relative viability was 0.691.

What about the relative viability ([5]; first compound 0.02 µM) of the same compound?
The relative viability was 0.755.

And the relative viability ([5]; first compound 0.06325 µM)?
Its relative viability is 0.621.

And the relative viability ([5]; first compound 0.2 µM)?
The relative viability was 0.216.

And the relative viability ([6]; first compound 0.002 µM)?
Its relative viability is 0.931.

What about the relative viability ([6]; first compound 0.006325 µM) of the same compound?
The relative viability was 0.962.

And the relative viability ([6]; first compound 0.02 µM)?
Its relative viability is 0.79.

And the relative viability ([6]; first compound 0.06325 µM)?
The relative viability was 0.993.

And the relative viability ([6]; first compound 0.2 µM)?
The relative viability was 0.875.

And the relative viability ([7]; first compound 0.002 µM)?
The relative viability was 0.757.

And the relative viability ([7]; first compound 0.006325 µM)?
The relative viability was 0.744.

And the relative viability ([7]; first compound 0.02 µM)?
Its relative viability is 0.739.

What about the relative viability ([7]; first compound 0.06325 µM) of the same compound?
Its relative viability is 0.212.

What about the relative viability ([7]; first compound 0.2 µM) of the same compound?
The relative viability was 0.204.

What about the relative viability ([8]; first compound 0.002 µM) of the same compound?
Its relative viability is 0.992.

What about the relative viability ([8]; first compound 0.006325 µM) of the same compound?
Its relative viability is 0.708.

What about the relative viability ([8]; first compound 0.02 µM) of the same compound?
The relative viability was 0.574.

What about the relative viability ([8]; first compound 0.06325 µM) of the same compound?
Its relative viability is 0.176.

And the relative viability ([8]; first compound 0.2 µM)?
The relative viability was 0.155.

What about the relative viability ([9]; first compound 0.006325 µM) of the same compound?
Its relative viability is 0.936.

And the relative viability ([9]; first compound 0.02 µM)?
The relative viability was 1.05.

What about the relative viability ([9]; first compound 0.06325 µM) of the same compound?
The relative viability was 0.939.

What about the relative viability ([9]; first compound 0.2 µM) of the same compound?
Its relative viability is 0.715.

And the relative viability ([10]; first compound 0.002 µM)?
The relative viability was 0.829.

What about the relative viability ([10]; first compound 0.006325 µM) of the same compound?
The relative viability was 0.644.

What about the relative viability ([10]; first compound 0.02 µM) of the same compound?
The relative viability was 0.705.

And the relative viability ([10]; first compound 0.06325 µM)?
Its relative viability is 0.615.

What about the relative viability ([10]; first compound 0.2 µM) of the same compound?
The relative viability was 0.257.

What about the relative viability ([11]; first compound 0.002 µM) of the same compound?
The relative viability was 1.02.

And the relative viability ([11]; first compound 0.006325 µM)?
The relative viability was 0.957.

What about the relative viability ([11]; first compound 0.02 µM) of the same compound?
The relative viability was 1.17.

What about the relative viability ([11]; first compound 0.06325 µM) of the same compound?
Its relative viability is 1.06.

What about the relative viability ([11]; first compound 0.2 µM) of the same compound?
Its relative viability is 0.0699.
